The results in this text go back to ChEMBL document CHEMBL3881527, “Multi-functional small molecules as anti-proliferative agents” (2008).

Data set [1] can be described thus: Chemical stability in diluted solution. The format is physicochemical.
The nature of data set [2]: Solubility of the compound at pH 3 to 4. The format is physicochemical. The settings on record: buffer.
A short description of data set [3]: Drug uptake in iv dosed Sprague-Dawley rat plasma administered in 30% captisol as 5 mins infusion. The format is ADME, organism-based. To be noted: in vivo.
For another data set, the system named is Colon. The experiment in a line: Cmax in CD1 mouse colon at 20 mg/kg, iv administered in 30% captisol as 2 mins infusion by LC/MS/MS analysis. The format is ADME, organism-based. Also on record: dose 20 mg/kg, route intravenous. To be noted: in vivo.
Data set [4] in a line: Solubility of the compound at pH 2 to 3. The settings on record: buffer. The format is physicochemical.
Data set [5] is described as follows: Solubility of the compound at pH 4 to 5. The format is physicochemical. The settings on record: buffer.

As to `C#Cc1cccc(Nc2ncnc3cc(OC)c(OCCCCCCC(=O)NO)cc23)c1.O=C(O)C(O)C(O)C(=O)O`, the Stability in data set [1] was above 12 h. Besides, in data set [2], the concentration in solution (solubility) was 60 mg/mL.
`C#Cc1cccc(Nc2ncnc3cc(OC)c(OCCCCCCC(=O)NO)cc23)c1.Cl`: the Drug uptake entry in data set [3] was “Dose-dependent effect”. In the data set with Colon, the highest level (Cmax) was 8.5 µM. This molecule yielded a Stability in data set [1] above 12 h. Further, the solubility (as a rule, how much of the substance goes into solution per volume) in data set [4] was determined as 25 mg/mL.
Molecule `C#Cc1cccc(Nc2ncnc3cc(OC)c(OCCCCCCC(=O)NO)cc23)c1.O=C(O)CC(O)(CC(=O)O)C(=O)O` returned a solubility in data set [5] of 25 mg/mL. The Stability in data set [1] is above 12 h.
